{
  "source": "patent US20050153870A1",
  "about": "“Medicinal composition for diagnosis, prevention, or therapy of multiple risk factor syndrome” (priority 2002, published 2005)",
  "key": {"Rat": {"test_system": "Rat", "assay": "Glucogenesis in the liver", "type": "in vivo", "settings": "perorally", "text": "Compounds of this series suppresses hepatic glucogenesis which is induced by administration of dexamethazon to a rat. For this reason, it antagonizes the action of glucocorticoid in vivo. The compound further has an effect of suppressing steroid diabetes characterized by polydipsia and polyurea and urine sugar excretion induced by administering cortisol to a rat. […] These facts strongly support that compounds of this series is useful in preventing and/or treating visceral fat syndrome."}, "[1]": {"test_system": "non-insulin dependent type II diabetes patients", "assay": "Clinical test II", "type": "in vivo, human", "settings": "for Body weight: week 0: 61.4 ± 10.21, in kg; for Serum neutral fat: week 0: 199.6 ± 88.29; for number of patients, Feeling of weariness Absent: before medication 0 of 25; for number of patients, Large amount of urine excretion Absent: before medication 0 of 30; for number of patients, Feeling of fatigue Absent: before medication 1 of 15; for number of patients, Throat dry Absent: before medication 1 of 30; for number of patients, Pain in the calf of leg Absent: before medication 4 of 16; for number of patients, Pain in the calf of leg Present: before medication 12 of 16; for number of patients, Feeling of fatigue Present: before medication 14 of 15; for number of patients, Feeling of weariness Present: before medication 25 of 25; for number of patients, Throat dry Present: before medication 29 of 30; for number of patients, Large amount of urine excretion Present: before medication 30 of 30", "procedure": "On the other hand, Clinical test II was performed in a group of 79 participants from non-insulin dependent diabetic patients.\n79 non-insulin dependent type II diabetes patients whose blood sugar is well-controlled under dietary therapy (all were mongoloid Japanese) participated in Clinical test II. They were forbidden to use sulfonyl urea and biguanide agent which is a therapeutic agent for type II diabetes, and a fibrate series medicament, nicotinic acid, and probucol which is a serum fat decreasing agent; however use of an antihypertensive agent is not particularly prohibited. They participated on a voluntary basis after they signed informed consent for clinical test participation, which was proposed by a medical institution based on the Helsinki declaration. The participants consisted of 26 males and 53 females. An average age at the sign-up time was 58±9.9 years old (average value±standard deviation), ranging from 37 to 81 years old. The body weight of patients was divided by standard body weight obtained from the standard body-weight table issued by Meiji life Insurance Company. This index was 1.24±0.154 (average value±standard deviation) at the sign-up time, meaning that there are many obese persons. After 12 weeks, the body weight index decreased to 1.18±0.137(average value±standard deviation).\nThe number of patients having normal blood pressure was 58 (of them, 31 patients were taking an antihypertensive agent)."}, "[2]": {"settings": "30 cases with diabetic complications"}},
  "data": [
    {"smiles": "COc1c(Cl)c(C)c(C=O)c(O)c1C/C=C(C)/C=C/[C@@]1(C)[C@H](C)CCC(=O)[C@@H]1C", "note": "[4-O-methylascochlorin]", "values": [
      {"measurement": "glucogenesis performed in the liver", "setting": "Rat", "value": "performed in the liver is suppressed."},
      {"measurement": "Fasting blood sugar, change vs week 0", "setting": "[1]; 6 mg/kg, week 4", "value": "−9.1% (n = 69)"},
      {"measurement": "Serum neutral fat, change vs week 0", "setting": "[1]; 6 mg/kg, week 4", "value": "−15.2% (n = 62)"},
      {"measurement": "Total serum cholesterol, change vs week 0", "setting": "[1]; 6 mg/kg, week 4", "value": "−14.3% (n = 60)"},
      {"measurement": "Body weight", "setting": "[1]; 6 mg/kg, week 4", "value": "61.4 ± 9.63"},
      {"measurement": "Fasting blood sugar", "setting": "[1]; 6 mg/kg, week 4, week 0: 162 ± 50.68", "value": "146.1 ± 41.06"},
      {"measurement": "Serum neutral fat", "setting": "[1]; 6 mg/kg, week 4", "value": "173.5 ± 71.25"},
      {"measurement": "Total serum cholesterol", "setting": "[1]; 6 mg/kg, week 4, week 0: 265.3 ± 69.75", "value": "238.7 ± 51.33"},
      {"measurement": "Fasting blood sugar, change vs week 0", "setting": "[1]; 6 mg/kg, week 8", "value": "−8.9% (n = 74)"},
      {"measurement": "Serum neutral fat, change vs week 0", "setting": "[1]; 6 mg/kg, week 8", "value": "−22.7% (n = 59)"},
      {"measurement": "Total serum cholesterol, change vs week 0", "setting": "[1]; 6 mg/kg, week 8", "value": "−18.6% (n = 61)"},
      {"measurement": "Body weight", "setting": "[1]; 6 mg/kg, week 8", "value": "60.7 ± 8.88"},
      {"measurement": "Fasting blood sugar", "setting": "[1]; 6 mg/kg, week 8, week 0: 162 ± 50.68", "value": "147.9 ± 46.94"},
      {"measurement": "Serum neutral fat", "setting": "[1]; 6 mg/kg, week 8", "value": "162.3 ± 65.89"},
      {"measurement": "Total serum cholesterol", "setting": "[1]; 6 mg/kg, week 8, week 0: 265.3 ± 69.75", "value": "228.0 ± 43.65"},
      {"measurement": "Fasting blood sugar, change vs week 0", "setting": "[1]; 6 mg/kg, week 12", "value": "−10.8% (n = 71)"},
      {"measurement": "Serum neutral fat, change vs week 0", "setting": "[1]; 6 mg/kg, week 12", "value": "−21.8% (n = 69)"},
      {"measurement": "Total serum cholesterol, change vs week 0", "setting": "[1]; 6 mg/kg, week 12", "value": "−19.7% (n = 69)"},
      {"measurement": "Body weight", "setting": "[1]; 6 mg/kg, week 12", "value": "60.3 ± 9.07"},
      {"measurement": "Fasting blood sugar", "setting": "[1]; 6 mg/kg, week 12, week 0: 162 ± 50.68", "value": "142.2 ± 44.03"},
      {"measurement": "Serum neutral fat", "setting": "[1]; 6 mg/kg, week 12", "value": "158.8 ± 73.28"},
      {"measurement": "Total serum cholesterol", "setting": "[1]; 6 mg/kg, week 12, week 0: 265.3 ± 69.75", "value": "220.04 ± 46.17"},
      {"measurement": "number of patients, Feeling of weariness Absent", "setting": "[1]; 4th week", "value": 10},
      {"measurement": "number of patients, Large amount of urine excretion Absent", "setting": "[1]; 4th week", "value": 16},
      {"measurement": "number of patients, Feeling of fatigue Absent", "setting": "[1]; 4th week", "value": 5},
      {"measurement": "number of patients, Throat dry Absent", "setting": "[1]; 4th week", "value": 16},
      {"measurement": "number of patients, Pain in the calf of leg Absent", "setting": "[1]; 4th week", "value": 9},
      {"measurement": "number of patients, Pain in the calf of leg Present", "setting": "[1]; 4th week", "value": 7},
      {"measurement": "number of patients, Feeling of fatigue Present", "setting": "[1]; 4th week", "value": 10},
      {"measurement": "number of patients, Feeling of weariness Present", "setting": "[1]; 4th week", "value": 15},
      {"measurement": "number of patients, Throat dry Present", "setting": "[1]; 4th week", "value": 14},
      {"measurement": "number of patients, Large amount of urine excretion Present", "setting": "[1]; 4th week", "value": 14},
      {"measurement": "symptoms associated with diabetic nephropathy such as throat dry and excessive urination", "setting": "[1]; 5 excluded cases of type II diabetic patients having 10-20 year's disease history", "value": "disappeared from all patients"},
      {"measurement": "number of patients, Feeling of weariness Absent", "setting": "[1]; 8th week", "value": 19},
      {"measurement": "number of patients, Large amount of urine excretion Absent", "setting": "[1]; 8th week", "value": 22},
      {"measurement": "number of patients, Feeling of fatigue Absent", "setting": "[1]; 8th week", "value": 13},
      {"measurement": "number of patients, Throat dry Absent", "setting": "[1]; 8th week", "value": 23},
      {"measurement": "number of patients, Pain in the calf of leg Absent", "setting": "[1]; 8th week", "value": 10},
      {"measurement": "number of patients, Pain in the calf of leg Present", "setting": "[1]; 8th week", "value": 6},
      {"measurement": "number of patients, Feeling of fatigue Present", "setting": "[1]; 8th week", "value": 2},
      {"measurement": "number of patients, Feeling of weariness Present", "setting": "[1]; 8th week", "value": 6},
      {"measurement": "number of patients, Throat dry Present", "setting": "[1]; 8th week", "value": 7},
      {"measurement": "number of patients, Large amount of urine excretion Present", "setting": "[1]; 8th week", "value": 8},
      {"measurement": "decrease of body weight compared to before medication", "setting": "[1]; 12-week medication", "value": 0.9, "unit": "kg"},
      {"measurement": "number of patients, Feeling of weariness Absent", "setting": "[1]; 12th week", "value": 24},
      {"measurement": "number of patients, Large amount of urine excretion Absent", "setting": "[1]; 12th week", "value": 29},
      {"measurement": "number of patients, Feeling of fatigue Absent", "setting": "[1]; 12th week", "value": 15},
      {"measurement": "number of patients, Throat dry Absent", "setting": "[1]; 12th week", "value": 28},
      {"measurement": "number of patients, Pain in the calf of leg Absent", "setting": "[1]; 12th week", "value": 14},
      {"measurement": "number of patients, Pain in the calf of leg Present", "setting": "[1]; 12th week", "value": 2},
      {"measurement": "number of patients, Feeling of fatigue Present", "setting": "[1]; 12th week", "value": 0},
      {"measurement": "number of patients, Feeling of weariness Present", "setting": "[1]; 12th week", "value": 1},
      {"measurement": "number of patients, Throat dry Present", "setting": "[1]; 12th week", "value": 2},
      {"measurement": "number of patients, Large amount of urine excretion Present", "setting": "[1]; 12th week", "value": 1},
      {"measurement": "feeling of fatigue, feeling of weariness, pain in the calf of leg (diabetic neuropathy)", "setting": "[1]; [2]", "value": "improved these symptoms with the passage of time"},
      {"measurement": "throat dry and excessive urination (symptoms of diabetic nephropathy)", "setting": "[1]; [2]", "value": "significantly improved"},
      {"measurement": "abnormality in the serum biological test, hematocyte test, and urine test", "setting": "[1]; 79 patients, 12-week medication", "value": "did not bring any abnormality"},
      {"measurement": "side effect", "setting": "[1]; 79 patients, 12-week medication, 6 mg/kg, transient, disappeared within a week", "value": "Two cases of light eruption"},
      {"measurement": "Fasting blood sugar, change vs before medication", "setting": "[1]; High blood sugar group FBS > 130 mg/dl, 4th week", "value": "−11.3% (n = 45)"},
      {"measurement": "Fasting blood sugar", "setting": "[1]; High blood sugar group FBS > 130 mg/dl, 4th week, before medication 187.6 ± 40.39", "value": "167.3 ± 34.50", "unit": "mg/dL"},
      {"measurement": "Fasting blood sugar, change vs before medication", "setting": "[1]; High blood sugar group FBS > 130 mg/dl, 8th week", "value": "−11.8% (n = 49)"},
      {"measurement": "Fasting blood sugar", "setting": "[1]; High blood sugar group FBS > 130 mg/dl, 8th week, before medication 187.6 ± 40.39", "value": "167.8 ± 44.82", "unit": "mg/dL"},
      {"measurement": "Fasting blood sugar, change vs before medication", "setting": "[1]; High blood sugar group FBS > 130 mg/dl, 12th week", "value": "−13.8% (n = 46)"},
      {"measurement": "Fasting blood sugar", "setting": "[1]; High blood sugar group FBS > 130 mg/dl, 12th week, before medication 187.6 ± 40.39", "value": "161.7 ± 41.79", "unit": "mg/dL"},
      {"measurement": "Total serum cholesterol, change vs before medication", "setting": "[1]; High cholesterol group 300-200 mg/dl, 4th week", "value": "−11.8% (n = 26)"},
      {"measurement": "Total serum cholesterol", "setting": "[1]; High cholesterol group 300-200 mg/dl, 4th week, before medication 267.6 ± 23.66", "value": "240.8 ± 38.92", "unit": "mg/dL"},
      {"measurement": "Total serum cholesterol, change vs before medication", "setting": "[1]; High cholesterol group 300-200 mg/dl, 8th week", "value": "−13.9% (n = 27)"},
      {"measurement": "Total serum cholesterol", "setting": "[1]; High cholesterol group 300-200 mg/dl, 8th week, before medication 267.6 ± 23.66", "value": "232.4 ± 36.01", "unit": "mg/dL"},
      {"measurement": "Total serum cholesterol, change vs before medication", "setting": "[1]; High cholesterol group 300-200 mg/dl, 12th week", "value": "−17.0% (n = 30)"},
      {"measurement": "Total serum cholesterol", "setting": "[1]; High cholesterol group 300-200 mg/dl, 12th week, before medication 267.6 ± 23.66", "value": "227.2 ± 45.36", "unit": "mg/dL"},
      {"measurement": "Fasting blood sugar, change vs before medication", "setting": "[1]; Normal blood sugar group FBS < 130 mg/dl, 4th week", "value": "ns (n = 24)"},
      {"measurement": "Fasting blood sugar", "setting": "[1]; Normal blood sugar group FBS < 130 mg/dl, 4th week, before medication 108.8 ± 15.10", "value": "106.4 ± 13.48", "unit": "mg/dL"}
    ]}
  ]
}
